Reference: article PMC9004346, “Development of small cyclic peptides targeting the CK2α/β interface” (Chemical Communications (Cambridge, England), 2022)
*1 amine or outer side, *2 acyl side, *3 side chain or, on linkers, in order; H or OH if unused. Where a SMILES comes first, the peptide text is derived from it. Bridges are numbered along the chain shown (N, C = ends). [ ]: non-standard residue; d: D form. Trp(2-yl) = O=C([C@H](Cc1c([*:3])[nH]c2ccccc12)N[*:1])[*:2]; hCys = N[C@@H](CCS)C(=O)O

Assay: Serum stability test
Assay type: in vitro ADME
Conditions: 20% human serum in PBS, 37 °C, monitored over 24 h
Description: 1.6.3 Serum stability test
500 μL of PBS buffer supplemented with 20% (v/v) of human serum was allocated into an Eppendorf tube and temperature kept at 37 °C for 15 minutes before commencing the experiment. 5 µL of the peptide from 10 mM stock solution in DMSO was added. Caffeine was added as an internal standard (10 μL of a 15 mg/mL solution in MQ water). At specific intervals, 50 µL of the reaction mixture was taken and quenched with 100 µL of a 1:1 mixture of 96% Ethanol:DMSO. The suspension was spun at 13400 g for 10 minutes. 100 μL of the supernatant was analysed using C-18 HPLC with an eluting gradient 5-95% MeCN (0.05% TFA) in water (0.05% TFA) over 15 minutes (90 μL injection volume).
Percentage of intact starting peptide was monitored over 24 h (calculated as the ratio of the area of […]
the peak corresponding to the intact peptide to the area of the peak of caffeine). The experiment was […]
1 M. M. Wiedmann, Y. S. Tan, Y. Wu, S. Aibara, W. Xu, H. F. Sore, C. S. Verma, L. Itzhaki, M.
Stewart, J. D. Brenton and D. R. Spring, Angew. Chemie Int. Ed., 2017, 56, 524–529.
3 G. T. Potter, G. C. Jayson, G. J. Miller and J. M. Gardiner, J. Org. Chem., 2016, 81, 3443–3446.
4 J. Iegre, P. Brear, D. J. Baker, Y. S. Tan, E. L. Atkinson, H. F. Sore, D. H. O’ Donovan, C. S. Verma,
7 C. Puig Duran, F. Albericio Palomera, M. Gongora Benitez, M. Paradis Bas, L. Miret Casals, I. […]

Serum stability (in words): fully stable in serum over 24 h
SMILES: CC(=O)N[C@H]1CCSc2[nH]c3ccccc3c2C[C@@H](C(N)=O)NC(=O)[C@H](CCCCN)NC(=O)[C@H](Cc2ccccc2)NC(=O)CNC(=O)[C@H](Cc2ccc(O)cc2)NC(=O)[C@H](CC(C)C)NC(=O)[C@H](CCCNC(=N)N)NC1=O [Peptide P8C9, (hC)C9RLYGFKWC9] (Ac-[hCys]RLYGFK[Trp(2-yl)]-NH2; thioether 1-8)
